Measured values published in the SangsterLogP compilation.

Experiment: method code SF-RC, from DOI: 10.1021/jf60225a019, PMID: 546944

Compound	logP
CCOc1ccc(C(c2ccc(C)cc2)C(C)[N+](=O)[O-])cc1 (stereo unspecified)	3.46
CCOc1ccc(C(c2ccc(OCC)cc2)C(C)(C)C)cc1	3.16
CCOc1ccc(C(c2ccc(OCC)cc2)C(Cl)Cl)cc1	3.65
CCOc1ccc(C(c2ccc(OCC)cc2)C(C)(C)Cl)cc1	3.25
CCOc1ccc(C(c2ccc(C)cc2)C(C)C)cc1 (stereo unspecified)	3.55
CCOc1ccc(C(c2ccc(OCC)cc2)C(C)Cl)cc1 (stereo unspecified)	3.58
CCOc1ccc(C(c2ccc(OCC)cc2)C(C)(Cl)Cl)cc1	3.64
COc1ccc(C(c2ccc(OC)cc2)C(C)(C)C)cc1	3.57
CCOc1ccc(C(c2ccc(OCC)cc2)C(C)C)cc1	3.61
CCOc1ccc(C(c2ccc(OCC)cc2)C(C)[N+](=O)[O-])cc1 (stereo unspecified)	3.45
CCOc1ccc(C(c2ccc(C)cc2)C(C)Cl)cc1 (stereo unspecified)	3.19
